We go through three compounds from publication PMC11879040, “Advancing systemic toxicity risk assessment: Evaluation of a NAM-based toolbox approach” (Toxicological Sciences, 2024).

Series [1] concerns Gamma-aminobutyric acid receptor subunit alpha-1 BZD site, GABRA1A (r). The series is classed as binding, rat. The note with it: IPP screening at 100 uM; control diazepam.
The conditions of series [2]: PBK level L2; taken or scaled from references (median where several); ref [6],[7],[10],[19]; cited from earlier work.
In the next series the test system is rat. The note with it: cited from earlier work; for PoD (NOAEL): rat.
Series [3] relates to Glutamate receptor ionotropic NMDA 1 non-selective, GRIN1 (r). Particulars: IPP screening at 100 uM; control CGS 19755.
The subject of series [4] is HepG2 cells. The experiment in a line: Cell stress panel (CSP), 24 h, 8 concentrations, BIFROST global PoD. Particulars: HepG2; cell stress panel PoD. The series is classed as cell-based. How it is done: Compounds were tested using the previously developed cell stress panel ([Hatherell et al. 2020]) and the expanded biomarker panel outlined in Middleton et al. HepG2 cells were treated with all compounds for 24 h across 8 concentrations prior to biomarker analysis. The same plate layout and number of replicates (3 biological and 2 technical) were used as previously for each assay within the panel.

The conditions of series [5]: cited from earlier work.
Series [6] deals with Sodium channel protein type 5 subunit alpha (site 2), SCN5A (r). It counts as binding, rat.
Series [7] is described as follows: hepatic intrinsic clearance (Clint). The note with it: PBK level L3; optimised against clinical data; per chemical [8],[9],[14],[16],[22],[24],[25],[29],[30],[32].
Series [8] relates to Potassium Voltage-Gated Channel Kv non-selective, KCNQ1 (r). The experiment in a line: IPP KCNQ1 binding (antagonist radioligand). The note with it: IPP screening at 100 uM; control α-dendrotoxin. The arrangement: species or system rat.
Series [9] has as its system Thyroid hormone receptor alpha, THRA (h). The experiment in a line: IPP THRA coactivator recruitment (agonist). The series is classed as biochemical, human. Particulars: 100 uM; agonist; T3; * denotes assay interference (2-Amino-6-chloro-4-nitrophenol, HC Red 3).
In a further series the test system is MCF7 cells. The series can be described thus: High-throughput transcriptomics (HTTr, TempO-Seq), MCF7, 24 h. It counts as cell-based, human. Particulars: MCF-7; for pod_httr_bifrost PoD: HTTr BIFROST PoD; for podl_path_minbmd PoD: HTTr minimum pathway BMD(L). How it is done: (§1) HepG2, HepaRG, and MCF7 cells were treated with each compound for 24 h across a dose range of 7 concentrations and lysed using TempO-Seq lysis buffer (BioSpyder Technologies, proprietary kit, see [Middleton et al. 2022] for method details). Sequencing was performed using TempO-Seq (BioClavis) version 2 of the human whole transcriptome panel and analyzed as described previously in Middleton et al.

The target in series [10] is Voltage-dependent L-type Ca2+ channel (dihydropyridine site), CACNA1C (r) (Rattus norvegicus, UniProt P22002). It counts as binding.
Sequence of Voltage-dependent L-type Ca2+ channel (dihydropyridine site), CACNA1C (r) (P22002 whole entry): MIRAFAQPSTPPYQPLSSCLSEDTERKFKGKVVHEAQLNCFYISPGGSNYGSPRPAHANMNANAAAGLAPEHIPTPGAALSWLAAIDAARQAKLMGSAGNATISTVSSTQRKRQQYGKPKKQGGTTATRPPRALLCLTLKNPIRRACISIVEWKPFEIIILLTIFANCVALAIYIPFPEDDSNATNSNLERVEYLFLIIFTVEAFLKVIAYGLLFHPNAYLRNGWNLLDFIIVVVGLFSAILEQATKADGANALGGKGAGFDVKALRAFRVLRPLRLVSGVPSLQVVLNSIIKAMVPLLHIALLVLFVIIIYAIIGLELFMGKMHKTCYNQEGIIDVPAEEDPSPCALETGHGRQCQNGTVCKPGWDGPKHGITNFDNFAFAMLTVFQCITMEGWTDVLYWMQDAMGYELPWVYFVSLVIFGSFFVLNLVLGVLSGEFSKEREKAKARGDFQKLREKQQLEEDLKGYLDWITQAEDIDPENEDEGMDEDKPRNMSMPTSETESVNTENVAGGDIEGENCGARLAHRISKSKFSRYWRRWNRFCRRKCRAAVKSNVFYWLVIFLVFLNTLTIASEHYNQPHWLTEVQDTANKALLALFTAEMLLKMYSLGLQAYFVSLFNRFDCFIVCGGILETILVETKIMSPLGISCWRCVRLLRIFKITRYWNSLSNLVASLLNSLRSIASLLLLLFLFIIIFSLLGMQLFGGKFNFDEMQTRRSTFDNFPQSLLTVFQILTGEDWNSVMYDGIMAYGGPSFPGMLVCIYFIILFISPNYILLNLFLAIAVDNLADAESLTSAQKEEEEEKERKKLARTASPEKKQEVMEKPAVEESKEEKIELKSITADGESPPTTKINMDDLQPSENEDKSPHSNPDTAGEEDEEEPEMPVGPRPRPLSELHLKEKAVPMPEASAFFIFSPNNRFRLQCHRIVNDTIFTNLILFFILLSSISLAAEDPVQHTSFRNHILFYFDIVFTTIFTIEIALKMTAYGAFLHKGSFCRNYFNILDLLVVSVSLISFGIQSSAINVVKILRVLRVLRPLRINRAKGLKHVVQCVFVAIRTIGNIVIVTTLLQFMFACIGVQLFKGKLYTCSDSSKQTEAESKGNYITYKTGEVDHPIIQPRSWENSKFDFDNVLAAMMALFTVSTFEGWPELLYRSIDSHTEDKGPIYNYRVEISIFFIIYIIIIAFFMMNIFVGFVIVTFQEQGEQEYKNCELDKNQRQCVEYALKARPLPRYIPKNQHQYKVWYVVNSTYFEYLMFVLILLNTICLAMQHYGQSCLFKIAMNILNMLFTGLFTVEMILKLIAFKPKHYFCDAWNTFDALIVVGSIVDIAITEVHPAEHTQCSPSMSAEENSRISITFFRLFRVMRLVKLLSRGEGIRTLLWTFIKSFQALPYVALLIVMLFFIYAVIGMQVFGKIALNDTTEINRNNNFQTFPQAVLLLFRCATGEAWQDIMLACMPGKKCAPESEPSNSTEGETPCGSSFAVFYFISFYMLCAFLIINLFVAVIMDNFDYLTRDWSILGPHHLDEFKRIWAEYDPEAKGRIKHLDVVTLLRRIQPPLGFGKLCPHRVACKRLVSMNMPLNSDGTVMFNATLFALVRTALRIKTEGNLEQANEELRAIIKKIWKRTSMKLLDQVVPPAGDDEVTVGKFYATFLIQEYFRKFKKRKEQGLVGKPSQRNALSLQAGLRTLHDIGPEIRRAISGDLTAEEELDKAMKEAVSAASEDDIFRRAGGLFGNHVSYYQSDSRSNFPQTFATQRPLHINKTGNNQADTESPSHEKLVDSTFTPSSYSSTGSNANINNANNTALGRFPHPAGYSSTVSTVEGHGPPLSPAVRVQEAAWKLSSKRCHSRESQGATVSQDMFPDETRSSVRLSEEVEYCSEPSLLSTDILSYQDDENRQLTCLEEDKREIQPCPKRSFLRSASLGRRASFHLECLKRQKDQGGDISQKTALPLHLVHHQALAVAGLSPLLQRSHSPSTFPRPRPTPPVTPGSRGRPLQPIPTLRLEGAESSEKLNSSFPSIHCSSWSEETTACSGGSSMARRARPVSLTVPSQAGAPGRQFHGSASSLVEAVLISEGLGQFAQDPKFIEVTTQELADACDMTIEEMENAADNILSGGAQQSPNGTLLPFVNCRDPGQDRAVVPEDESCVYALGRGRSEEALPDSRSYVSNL
For series [11] the following is noted: single value or median, ref [2],[4],[6],[7],[8],[10],[11],[15],[18],[27],[34], cited from earlier work.
Series [12] relates to HepG2 cells. The series can be described thus: High-throughput transcriptomics (HTTr, TempO-Seq), HepG2, 24 h. It counts as cell-based, human. The note with it: HepG2; for pod_httr_bifrost PoD: HTTr BIFROST PoD; for podl_path_minbmd PoD: HTTr minimum pathway BMD(L). How it is done: as §1
The next series has as its system Tubulin (r). The series can be described thus: IPP Tubulin binding. Set-up: species or system rat. The note with it: 100 uM; ligand/control Colchicine.
The next series concerns HepaRG cells. The series can be described thus: High-throughput transcriptomics (HTTr, TempO-Seq), HepaRG, 24 h. It counts as cell-based, human. Particulars: HepaRG; for pod_httr_bifrost PoD: HTTr BIFROST PoD; for podl_path_minbmd PoD: HTTr minimum pathway BMD(L). How it is done:
as §1

The test system of series [13] is 63 targets with known safety liabilities. The series can be described thus: In vitro pharmacological profiling (IPP) panel, screening at 10 or 100 µM and dose response, minimum IC50/AC50. The series is classed as biochemical. Particulars: lowest AC50 across IPP panel (systemic targets); cell_type -; read-out: ipp_lowest_ac50_systemic PoD.
For series [14], the target named is T1, Adenosine receptor A2a, ADORA2A (h) (Homo sapiens, UniProt P29274).
T1 construct: purchased Eurofins Cerep (SafetyScreen44-based IPP panel)
T1 sequence (P29274 whole entry): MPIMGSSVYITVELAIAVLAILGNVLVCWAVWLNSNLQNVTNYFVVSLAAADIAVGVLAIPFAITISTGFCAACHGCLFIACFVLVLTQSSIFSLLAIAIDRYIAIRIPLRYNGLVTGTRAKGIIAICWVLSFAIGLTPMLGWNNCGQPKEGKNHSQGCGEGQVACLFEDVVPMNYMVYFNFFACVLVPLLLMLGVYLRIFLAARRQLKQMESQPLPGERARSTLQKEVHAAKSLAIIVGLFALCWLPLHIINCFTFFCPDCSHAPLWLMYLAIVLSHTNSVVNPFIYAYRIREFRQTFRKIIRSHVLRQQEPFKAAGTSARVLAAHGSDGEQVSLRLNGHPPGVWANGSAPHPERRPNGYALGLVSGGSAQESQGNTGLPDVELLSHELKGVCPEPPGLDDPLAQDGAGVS
The experiment in a line: IPP ADORA2A binding (agonist radioligand). Particulars: IPP screening at 100 uM; control NECA.

The nature of series [15]: Assignment of risk classifications to benchmark chemical-exposure scenarios. Particulars: for risk: Oral, Therapeutic, Tablet, from table S1.
Series [16] concerns the target T2, Estrogen receptor, ER1 (h) (Homo sapiens, UniProt P03372).
T2 construct: purchased Eurofins Cerep (SafetyScreen44-based IPP panel)
T2 sequence (P03372 1-595): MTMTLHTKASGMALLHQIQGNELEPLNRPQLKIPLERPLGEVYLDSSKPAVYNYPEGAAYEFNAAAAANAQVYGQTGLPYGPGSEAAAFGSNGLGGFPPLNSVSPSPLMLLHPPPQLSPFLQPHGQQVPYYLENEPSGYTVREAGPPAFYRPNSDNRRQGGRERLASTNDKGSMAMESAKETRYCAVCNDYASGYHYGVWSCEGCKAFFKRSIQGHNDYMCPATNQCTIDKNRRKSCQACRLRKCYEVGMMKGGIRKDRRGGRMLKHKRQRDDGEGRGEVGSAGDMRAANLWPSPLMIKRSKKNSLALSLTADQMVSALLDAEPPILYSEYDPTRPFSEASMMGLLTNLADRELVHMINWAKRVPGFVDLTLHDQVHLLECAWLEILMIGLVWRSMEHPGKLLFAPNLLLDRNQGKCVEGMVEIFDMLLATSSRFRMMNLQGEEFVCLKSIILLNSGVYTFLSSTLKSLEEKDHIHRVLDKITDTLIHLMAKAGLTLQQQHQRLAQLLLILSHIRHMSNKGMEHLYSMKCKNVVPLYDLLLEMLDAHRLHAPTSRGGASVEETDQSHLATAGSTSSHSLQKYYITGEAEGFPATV
The series can be described thus: IPP ER1 coactivator recruitment (antagonist). The series is classed as biochemical. The note with it: 100 uM, estriol, * denotes assay interference (2-Amino-6-chloro-4-nitrophenol, HC Red 3).

In series [17] the target is Potassium voltage-gated channel subfamily H member 2 hERG, KCNH2 (h) (Homo sapiens, UniProt Q12809). The note with it: human, 100 µM.
Sequence of Potassium voltage-gated channel subfamily H member 2 hERG, KCNH2 (h) (Q12809 whole entry): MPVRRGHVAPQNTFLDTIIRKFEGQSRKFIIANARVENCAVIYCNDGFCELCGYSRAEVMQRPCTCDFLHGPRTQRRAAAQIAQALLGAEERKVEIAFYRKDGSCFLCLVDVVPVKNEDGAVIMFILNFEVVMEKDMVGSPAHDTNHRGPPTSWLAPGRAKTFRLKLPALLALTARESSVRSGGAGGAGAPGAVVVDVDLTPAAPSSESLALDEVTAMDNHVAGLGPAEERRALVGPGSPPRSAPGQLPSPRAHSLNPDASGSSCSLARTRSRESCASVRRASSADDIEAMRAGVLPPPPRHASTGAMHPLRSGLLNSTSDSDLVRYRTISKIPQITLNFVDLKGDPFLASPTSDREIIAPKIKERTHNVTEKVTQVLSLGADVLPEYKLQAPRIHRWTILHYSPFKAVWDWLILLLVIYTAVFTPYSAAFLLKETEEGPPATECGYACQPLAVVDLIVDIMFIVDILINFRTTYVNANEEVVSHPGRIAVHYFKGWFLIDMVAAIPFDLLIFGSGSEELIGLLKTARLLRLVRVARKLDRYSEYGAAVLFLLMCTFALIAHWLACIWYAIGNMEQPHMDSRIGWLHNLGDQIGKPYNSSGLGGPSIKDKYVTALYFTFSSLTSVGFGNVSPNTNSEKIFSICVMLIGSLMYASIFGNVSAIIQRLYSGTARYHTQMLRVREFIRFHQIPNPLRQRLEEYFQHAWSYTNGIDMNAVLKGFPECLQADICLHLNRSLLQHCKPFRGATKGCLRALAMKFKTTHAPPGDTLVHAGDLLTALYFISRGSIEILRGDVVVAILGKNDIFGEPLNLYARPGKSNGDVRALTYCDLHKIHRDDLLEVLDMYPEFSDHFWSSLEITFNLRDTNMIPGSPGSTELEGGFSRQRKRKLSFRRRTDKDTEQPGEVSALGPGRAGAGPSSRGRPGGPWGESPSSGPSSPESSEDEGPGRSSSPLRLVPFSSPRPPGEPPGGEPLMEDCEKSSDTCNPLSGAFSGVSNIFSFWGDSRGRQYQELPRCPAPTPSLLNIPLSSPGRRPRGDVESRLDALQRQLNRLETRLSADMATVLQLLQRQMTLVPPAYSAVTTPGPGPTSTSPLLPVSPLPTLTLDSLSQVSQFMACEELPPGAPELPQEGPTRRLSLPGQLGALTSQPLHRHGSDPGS
For series [18], the target named is T2, Estrogen receptor, ER1 (h). The experiment in a line: IPP ER1 coactivator recruitment (agonist). It counts as biochemical. Particulars: 100 uM, estriol, * denotes assay interference (2-Amino-6-chloro-4-nitrophenol, HC Red 3).
The conditions of series [19]: human.
Series [20] in a line: skin penetration (PBK input). The note with it: PBK level L2, [28] (ibuprofen).
Where [21] appears, read: IV bolus 4 mg, patients hospitalized with community-acquired pneumonia, calibration, ref Spoorenberg et al. 2014.
[22] abbreviates: Oral tablet 6 mg, fasted, 6 female healthy Asian, validation, ref Jobe et al. 2020.
Where [23] appears, read: Oral tablet 6 mg, fasted, patients hospitalized with community-acquired pneumonia, validation, ref Spoorenberg et al. 2014.
Where [24] appears, read: neurological effects, ref SCCS/1582/16.
The mark [25] stands for this setting: optimised based on [21] (glutaraldehyde), [23] (HCRed3).

Structures are written as SMILES. Like-named read-outs stand apart in the source and are kept apart here.

Take `C[C@@H]1C[C@H]2[C@@H]3CCC4=CC(=O)C=C[C@]4(C)[C@@]3(F)[C@@H](O)C[C@]2(C)[C@@]1(O)C(=O)CO` [Dexamethasone, 9-Fluoro-11beta,17,21-trihydroxy-16alpha-methylpregna-1,4-diene-3,20-dione]: the Specific binding in series [1] is 27.9%; in series [3], 10.7%; in series [6], 11.2%; in [8], -4.1%; in [10], -36.4%; in series [14], -9.1%. Besides, the “Intrinsic Liver Clearance” value in [2] is 107.8 L/h; in series [7], 23.37 L/h. Besides, the “PoD (NOAEL)” value in the series with rat (endocrine toxicity study, ref ECFA ADI) is recorded as 0.001 mg/kg bw/day. Also, in the series with HepG2 cells [4], the “pod_cell_stress PoD” value is recorded as 14.5194 µM. Further, the “Reported AUC0-t” value in series [5] (setting [21]) was 507.3 ng·h/mL; in series [5] (setting [22]), 689.3 ng·h/mL; in [5] (setting [23]) it was 746.6 ng·h/mL. Also, the Reported cmax is 0.0964 µg/mL in series [5] (setting [21]), 0.0822 µg/mL in [5] (setting [22]) and 0.0643 µg/mL in [5] (setting [23]). In addition, the Reported tmax in series [5] (setting [21]) is reported as 0 h; in series [5] (setting [22]), 1.53 h; in series [5] (setting [23]), 1.4 h. Further, in series [9], the “IPP screening %, Coactivator recruitment” value amounted to 3.0%. For the same compound, the “pod_httr_bifrost PoD” value in the series with MCF7 cells amounted to 9.79e-05 µM; in the series on HepG2 cells [12] it was 0.0003269 µM; with HepaRG cells, 3.5452 µM. The “podl_path_minbmd PoD” value in the series on MCF7 cells is 6.367 µM; in the series on HepG2 cells [12], 69.6957 µM; in the series with HepaRG cells, 74.2662 µM. Further, the Fup in [11] (PBK level L2) and in [11] (PBK level L3) was 26.3% throughout. Besides, the “IPP screening %, Specific binding” value in the series with Tubulin (r) is -8.0%. In [13], the AC50 was found to be 3.15 nM. Moreover, the “Risk Classification” value in series [15] (Oral tablet 0.5 mg/day) and in series [15] (Oral tablet 10 mg/day) was “High risk” throughout. In addition, the risk was 1 in series [15] (0.5mg/day, Exp3) and 1 in [15] (10mg/day, Exp4).

In the case of `CCOc1cc(CCC(C)=O)ccc1O` [Ethylzingerone, 4-(3-Ethoxy-4-hydroxyphenyl)butan-2-one], the Specific binding was -2.5% in series [1]; -16.9% in [3]; 8.8% in [6] (IPP screening at 100 uM, control veratridine); 0.7% in series [8]; 4.5% in series [14]. In addition, the figures for the “IPP screening %, Coactivator recruitment” value in series [16], in series [9] and in series [18] were -14.0%, 4.0% and 2.0%, respectively. For the same compound, in the series on rat (90 day oral rat study, ref SCCS/1582/16), the “local NOAEL” value is 300 mkd. Also, the BMD in the series with rat (setting [24]) is given as 220 mkd. Besides, in the series with rat (setting [24]), the BMDL is recorded as 110 mkd. For the same compound, the “PoD (NOAEL)” value with rat (90 day oral rat study, ref ToxRefDB/Paul-Friedman et al. (2020)/regulatory opinions) is recorded as 100 mg/kg bw/day. Besides, the “IPP screening %, Specific binding” value in series [17] was found to be 0.2%; in the series with Tubulin (r), 16.0%. The “pod_cell_stress PoD” value with HepG2 cells [4] is 17.0917 µM. The “pod_httr_bifrost PoD” value in the series with MCF7 cells worked out at 11.821 µM; in the series with HepG2 cells [12] it was 11.971 µM; with HepaRG cells, 29.321 µM. Moreover, the “podl_path_minbmd PoD” value in the series on MCF7 cells was determined as 119.724 µM; in the series with HepG2 cells [12] it was 445.376 µM; in the series with HepaRG cells, 291.446 µM. Moreover, in series [19], the risk came out at 0. Further, the AC50 in series [13] worked out at 1390 nM.

In the case of `Nc1ccc(NCCO)c([N+](=O)[O-])c1` [HCRed3], in series [20] (setting [25]), the “Diffusivity Dermis” value is 1.00E-08 cm^2/s, the “Diffusivity Stratum Corneum” value was 1.00E-08 cm^2/s and the “Diffusivity Viable Epidermis” value is on record as 1.00E-10 cm^2/s. Moreover, the “Partition Coefficient Stratum Corneum/Water” value in series [20] (optimised based on [21] (glutaraldehyde), [23] (HCRed3), no reference printed (DEET)) is given as 1.50. Further, the “Diffusivity Vehicle” value in series [20] (optimised based on [23] (HCRed3)) turned out to be 1.00E-05 cm^2/s. Further, the “Intrinsic Liver Clearance” value in series [2] is 248.1 L/h. In addition, the Fup in series [11] (PBK level L2) is 62.28%.
